Data published in patent US20240342116A1, “TARGETING SOX10+ BONE MARROW GLIAL CELLS FOR TREATING MYELOFIBROSIS” (The Trustees of Columbia University in the City of New York, priority 2023, published 2024).
Entries after “also recorded” stand apart in the source; their conditions may differ.

Key:
[1] = test system: Sox10+ glial cells / ErbB3+ glial cells; assay: Use examples: treatment of a subject with myelofibrosis; conditions: after one or more doses
Procedure: The subject is treated with a combined Jak inhibition and ErbB3 pathway inhibition, using, e.g., an antibody or antibody fragment agent which blocks ErbB3. […] The combined treatment targets both the hematopoietic compartment and the bone marrow niche.

[2] = test system: Sox10+ glial cells in the bone marrow; assay: Bone marrow glial cell ablation (chemical sympathectomy) with 6-OHDA in the MPLW515L PMF model
[3] = target: T1, alarmin complex (S100A8/A9) (Mus musculus, UniProt P31725); conditions: reference 63; cited from earlier work
T1 sequence (P31725 2-113 limits assumed): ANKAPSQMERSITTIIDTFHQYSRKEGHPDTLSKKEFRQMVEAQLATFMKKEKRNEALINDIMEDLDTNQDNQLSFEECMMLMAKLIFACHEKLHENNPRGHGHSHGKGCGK

In the case of NCCc1cc(O)c(O)cc1O [6-OHDA, 6-hydroxydopamine], the “symptom(s) of myelofibrosis” value [1] is reported as “one or more improvements”, the “depletion of Sox10+ glial cells in the bone marrow” value ([2]; 6-OHDA-treated mice) is reported as “efficiently depleted” and the body weight loss ([2]; 6-OHDA-treated mice, 50 mg/kg i.v. twice on alternating days) is reported as “no significant body weight loss”. The bone marrow cellularity ([2]; MPLW515L PMF mice vs vehicle) was “significant increase”, the “liver size / weight” value ([2]; MPLW515L PMF mice vs vehicle) was “reduced; also recorded: decreased” and the “spleen size / weight” value ([2]; MPLW515L PMF mice vs vehicle) was “reduced; also recorded: decreased”. For the same compound, the bone marrow fibrosis ([2]; MPLW515L PMF mice vs vehicle-treated control) was “significantly reduced; also recorded: ameliorated”, the “levels of active TGF-β in the bone marrow” value ([2]; bone marrow fluid, ELISA, MPLW515L PMF mice vs vehicle) was “significantly reduced” and the “levels of active TGF-β in the serum” value ([2]; serum, ELISA, MPLW515L PMF mice vs vehicle) was “without affecting”.
For COc1cccc2c1c(O)c(C(=O)N(C)c1ccc(C(F)(F)F)cc1)c(=O)n2C [tasquinimod], the PMF features [3] is listed as “ameliorated”.
